US7998952B2, “Thiolactams and uses thereof” (Millennium Pharmaceuticals, Inc., priority 2008, dated 2011)

Biological target: T1, recombinant human PLK1[2-369]T210D (Homo sapiens, UniProt P53350, T210D)
T1 construct: recombinant human PLK1[2-369]T210D; Smt (SUMO) fusion partner (N, cleaved yes); host or cells: E. coli
Assay: PLK1 DELFIA Kinase Assay
Assay type: biochemical
Conditions: 50 μM ATP, 2 μM peptide substrate, 0.3 nM enzyme, 90 minutes at room temperature
Protocol: Recombinant human PLK1 was expressed in E. coli as an N-terminal Smt fusion protein using a proprietary vector (pSGX4) by Structural Genomics (SGX). The fusion partner was removed through cleavage with Ulp1 after an initial purification using a Ni2+ affinity column.
PLK1 DELFIA® Kinase Assay
The enzymatic reaction mixture, with or without PLK inhibitors, was incubated 90 minutes at room temperature before termination with 50 μL of STOP buffer containing 1% BSA, 0.05% Tween20, 100 mM EDTA. 50 μL of the stopped enzyme reaction mixture was transferred to a Neutravidin-coated 384-well plate (Pierce) and incubated at room temperature for 60 minutes. […] The wells were washed and then the bound europium was liberated using 50 μL of Enhancement Solution (Perkin Elmer). Quantification of europium was done using a Pherastar (BMG Labtech)

T1 sequence (P53350 2-369 T210D): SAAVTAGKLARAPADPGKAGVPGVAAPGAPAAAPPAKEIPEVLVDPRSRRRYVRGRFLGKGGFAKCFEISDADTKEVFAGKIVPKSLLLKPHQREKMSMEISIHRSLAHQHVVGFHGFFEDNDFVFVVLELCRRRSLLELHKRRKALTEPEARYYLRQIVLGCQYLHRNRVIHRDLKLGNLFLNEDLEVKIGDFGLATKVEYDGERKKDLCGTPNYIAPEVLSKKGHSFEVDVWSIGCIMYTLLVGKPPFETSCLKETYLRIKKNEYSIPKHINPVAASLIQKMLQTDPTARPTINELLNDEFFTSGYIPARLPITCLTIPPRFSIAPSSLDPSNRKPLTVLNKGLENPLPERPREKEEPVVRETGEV

SMILES	IC50
COc1ccc2c(c1)NC(=S)Cc1cnc(Nc3cc(CCCN(C)C)cnc3C)nc1-2 [Compound I-1, 2-({5-[3-(dimethylamino)propyl]-2-methylpyridin-3-yl}amino)-9-methoxy-5,7-dihydro-6H-pyrimido[5,4-d][1]benzazepine-6-thione]	< 5 nM
CCN1CCN(c2cnc(C)c(Nc3ncc4c(n3)-c3ccc(C(F)(F)F)cc3NC(=S)C4)c2)C[C@@H]1C [Compound I-2, 2-({5-[(3S)-4-ethyl-3-methylpiperazin-1-yl]-2-methylpyridin-3-yl}amino)-9-(trifluoromethyl)-5,7-dihydro-6H-pyrimido[5,4-d][1]benzazepine-6-thione]	< 5 nM
Cc1nc(N(C)C2CCN(C)C2)ccc1Nc1ncc2c(n1)-c1ccc(Cl)cc1NC(=S)C2 (centres unmarked) [Compound I-3, 9-chloro-2-({2-methyl-6-[methyl(1-methylpyrrolidin-3-yl)amino]pyridin-3-yl}amino)-5,7-dihydro-6H-pyrimido[5,4-d][1]benzazepine-6-thione]	5 to 25 nM
Cc1ccc(Nc2ncc3c(n2)-c2ccc(C(F)(F)F)cc2NC(=S)C3)c(C)n1 [Compound I-4, 2-[(2,6-dimethylpyridin-3-yl)amino]-9-(trifluoromethyl)-5,7-dihydro-6H-pyrimido[5,4-d][1]benzazepine-6-thione]	< 5 nM
CCc1ccc2c(c1)NC(=S)Cc1cnc(Nc3cc(CCCN(C)C)cnc3C)nc1-2 [Compound I-5, 2-({5-[3-(dimethylamino)propyl]-2-methylpyridin-3-yl}amino)-9-ethyl-5,7-dihydro-6H-pyrimido[5,4-d][1]benzazepine-6-thione]	< 5 nM
Cc1ncc(CCN2CCN(C)CC2)cc1Nc1ncc2c(n1)-c1ccc(Cl)cc1NC(=S)C2 [Compound I-6, 9-chloro-2-({2-methyl-5-[2-(4-methylpiperazin-1-yl)ethyl]pyridin-3-yl}amino)-5,7-dihydro-6H-pyrimido[5,4-d][1]benzazepine-6-thione]	< 5 nM
Cc1nc(N2CCCC(N(C)C)C2)ccc1Nc1ncc2c(n1)-c1ccc(Cl)cc1NC(=S)C2 (centres unmarked) [Compound I-7, 9-chloro-2-({6-[3-(dimethylamino)piperidin-1-yl]-2-methylpyridin-3-yl}amino)-5,7-dihydro-6H-pyrimido[5,4-d][1]benzazepine-6-thione]	< 5 nM
COc1ncc(Nc2ncc3c(n2)-c2ccc(Cl)cc2NC(=S)C3)cc1CCCN(C)C [Compound I-8, 9-chloro-2-({5-[3-(dimethylamino)propyl]-6-methoxypyridin-3-yl}amino)-5,7-dihydro-6H-pyrimido[5,4-d][1]benzazapine-6-thione]	< 5 nM
Cc1nc(N2CCCC(N(C)C)C2)ccc1Nc1ncc2c(n1)-c1ccc(C(F)(F)F)cc1NC(=S)C2 (centres unmarked) [Compound I-9, 2-({6-[3-(dimethylamino)piperidin-1-yl]-2-methylpyridin-3-yl}amino)-9-(trifluoromethyl)-5,7-dihydro-6H-pyrimido[5,4-d][1]benzazepine-6-thione]	< 5 nM
Cc1ncc(CCN2C[C@@H](C)O[C@H](C)C2)cc1Nc1ncc2c(n1)-c1ccc(Cl)cc1NC(=S)C2 [Compound I-10]	< 5 nM
CCN1CCN(c2cncc(Nc3ncc4c(n3)-c3ccc(Cl)cc3NC(=S)C4)c2)C[C@@H]1C [Compound I-11, 9-chloro-2-({5-[(3S)-4-ethyl-3-methylpiperazin-1-yl]pyridin-3-yl}amino)-5,7-dihydro-6H-pyrimido[5,4-d][1]benzazepine-6-thione]	< 5 nM
Cc1ncc(CCCCN(C)C)cc1Nc1ncc2c(n1)-c1ccc(C(F)(F)F)cc1NC(=S)C2 [Compound I-12, 2-({5-[4-(dimethylamino)butyl]-2-methylpyridin-3-yl}amino)-9-(trifluoromethyl)-5,7-dihydro-6H-pyrimido[5,4-d][1]benzazepine-6-thione]	< 5 nM
S=C1Cc2cnc(Nc3ccc(N4CCOCC4)nc3)nc2-c2ccc(Cl)cc2N1 [Compound I-13, 9-chloro-2-[(6-morpholin-4-ylpyridin-3-yl)amino]-5,7-dihydro-6H-pyrimido[5,4-d][1]benzazepine-6-thione]	< 5 nM
Cc1ncc(C2CCN(C)CC2)cc1Nc1ncc2c(n1)-c1ccc(Cl)cc1NC(=S)C2 [Compound I-14, 9-chloro-2-{[2-methyl-5-(1-methylpiperidin-4-yl)pyridin-3-yl]amino}-5,7-dihydro-6H-pyrimido[5,4-d][1]benzazepine-6-thione]	< 5 nM
Cc1ncc(CCN2CCC(N(C)C)C2)cc1Nc1ncc2c(n1)-c1ccc(Cl)cc1NC(=S)C2 (centres unmarked) [Compound I-15, 9-chloro-2-[(5-{2-[3-(dimethylamino)pyrrolindin-1-yl]ethyl}-2-methylpridin-3-yl)amino]-5,7-dihydro-6H-pyrimido[5,4-d][1]benzazepine-6-thione]	< 5 nM
Cc1nc(CCCN(C)C)ccc1Nc1ncc2c(n1)-c1ccc(Cl)cc1NC(=S)C2 [Compound I-16, 9-chloro-2-({6-[3-(dimethylamino)propyl]-2-methylpyridin-3-yl}amino)-5,7-dihydro-6H-pyrimido[5,4-d][1]benzazepine-6-thione]	5 to 25 nM
CCN1CCC(c2cnc(C)c(Nc3ncc4c(n3)-c3ccc(Cl)cc3NC(=S)C4)c2)CC1 [Compound I-17, 9-chloro-2-{[5-(1-ethylpiperidin-4-yl)-2-methylpyridin-3-yl]amino}-5,7-dihydro-6H-pyrimido[5,4-d][1]benzazepine-6-thione]	< 5 nM
Cc1nc(NC2CCOCC2)ccc1Nc1ncc2c(n1)-c1ccc(C(F)(F)F)cc1NC(=S)C2 [Compound I-18, 2-{[2-methyl-6-(tetrahydro-2H-pyran-4-ylamino)pyridin-3-yl]amino}-9-(trifluoromethyl)-5,7-dihydro-6H-pyrimido[5,4-d][1]benzazepine-6-thione]	< 5 nM
Cc1nc(NC2CCOCC2)ccc1Nc1ncc2c(n1)-c1ccc(Cl)cc1NC(=S)C2 [Compound I-19, 9-chloro-2-{[2-methyl-6-(tetrahydro-2H-pyran-4-ylamino)pyridin-3-yl]amino}-5,7-dihydro-6H-pyrimido[5,4-d][1]benzazepine-6-thione]	< 5 nM
Cc1nc(C(=O)NCCN2CCOCC2)ccc1Nc1ncc2c(n1)-c1ccc(C(F)(F)F)cc1NC(=S)C2 [Compound I-21]	< 5 nM
Cc1nc(NC2CCN(C)CC2)ccc1Nc1ncc2c(n1)-c1ccc(Cl)cc1NC(=S)C2 [Compound I-22, 9-chloro-2-({2-methyl-6-[(1-methylpiperidin-4-yl)amino]pyridin-3-yl}amino)-5,7-dihydro-6H-pyrimido[5,4-d][1]benzazepine-6-thione]	< 5 nM
Cc1nc(NCCCN(C)C)ccc1Nc1ncc2c(n1)-c1ccc(C(F)(F)F)cc1NC(=S)C2 [Compound I-23, 2-[(6-{[3-(dimethylamino)propyl]amino}-2-methylpyridin-3-yl)amino]-9-(trifluoromethyl)-5,7-dihydro-6H-pyrimido[5,4-d][1]benzazepine-6-thione]	< 5 nM
COc1ncc(CCCN(C)C)cc1Nc1ncc2c(n1)-c1ccc(Cl)cc1NC(=S)C2 [Compound I-24, 9-chloro-2-({5-[3-(dimethylamino)propyl]-2-methoxypyridin-3-yl}amino)-5,7-dihydro-6H-pyrimido[5,4-d][1]benzazepine-6-thione]	< 5 nM
